According to PubChem BioAssay (NCI):
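GI50 = concentration required for 50% inhibition of growth. The concentration for full growth arrest is given as TGI.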

Legend:
Experiment in all cases: NCI tumour cell line growth inhibition, 384-well format
[1] = test system: 786-0 renal
[2] = test system: A498 renal
[3] = test system: A549 NSCLC
[4] = test system: ACHN renal
[5] = test system: BT-549 breast
[6] = test system: CAKI-1 renal
[7] = test system: CCRF-CEM leukemia
[8] = test system: COLO 205 colon
[9] = test system: DU-145 prostate
[10] = test system: EKVX NSCLC
[11] = test system: HCC-2998 colon
[12] = test system: HCT-116 colon
[13] = test system: HCT-15 colon
[14] = test system: HL-60(TB) leukemia
[15] = test system: HOP-62 NSCLC
[16] = test system: HS 578T breast
[17] = test system: HT29 colon
[18] = test system: IGROV1 ovarian
[19] = test system: K-562 leukemia
[20] = test system: KM12 colon
[21] = test system: LOX IMVI melanoma
[22] = test system: M14 melanoma
[23] = test system: MALME-3M melanoma
[24] = test system: MCF7 breast
[25] = test system: MDA-MB-231 breast
[26] = test system: MDA-MB-435 melanoma
[27] = test system: MDA-MB-468 breast
[28] = test system: MOLT-4 leukemia
[29] = test system: NCI-H226 lung
[30] = test system: NCI-H23 lung
[31] = test system: NCI-H322M lung
[32] = test system: NCI-H460 NSCLC
[33] = test system: NCI-H522 lung
[34] = test system: NCI/ADR-RES ovarian
[35] = test system: OVCAR-3 ovarian
[36] = test system: OVCAR-4 ovarian
[37] = test system: OVCAR-5 ovarian
[38] = test system: PC-3 prostate
[39] = test system: RPMI-8226 leukemia
[40] = test system: SF-268 CNS
[41] = test system: SF-295 CNS
[42] = test system: SF-539 CNS
[43] = test system: SK-MEL-28 melanoma
[44] = test system: SK-MEL-5 melanoma
[45] = test system: SK-OV-3 ovarian
[46] = test system: SN12C renal
[47] = test system: SNB-19 CNS
[48] = test system: SNB-75 CNS
[49] = test system: SW-620 colon
[50] = test system: T-47D breast
[51] = test system: TK-10 renal
[52] = test system: U251 glioblastoma
[53] = test system: UACC-62 melanoma
[54] = test system: UO-31 renal

Question: `Cc1ccc(C(=O)N(CCCN)C(c2oc3cc(Cl)ccc3c(=O)c2Cc2ccccc2)C(C)C)cc1` (stereo not drawn) was tested. Which GI50 [1] did it give?
Answer: Its GI50 is less than 10 nM.

Question: And the TGI [1]?
Answer: The TGI was 1390 nM.

Question: And the GI50 [2]?
Answer: The GI50 was 29 nM.

Question: What about the TGI [2] of the same compound?
Answer: Its TGI is 2010 nM.

Question: What about the GI50 [3] of the same compound?
Answer: The GI50 was less than 10 nM.

Question: And the TGI [3]?
Answer: The TGI was 1590 nM.

Question: And the GI50 [4]?
Answer: Its GI50 is 1160 nM.

Question: What about the TGI [4] of the same compound?
Answer: The TGI was 2420 nM.

Question: What about the GI50 [5] of the same compound?
Answer: The GI50 was less than 10 nM.

Question: What about the TGI [5] of the same compound?
Answer: Its TGI is 1360 nM.

Question: What about the GI50 [6] of the same compound?
Answer: The GI50 was less than 10 nM.

Question: What about the TGI [6] of the same compound?
Answer: The TGI was 1950 nM.

Question: What about the GI50 [7] of the same compound?
Answer: Its GI50 is less than 10 nM.

Question: And the TGI [7]?
Answer: Its TGI is less than 10 nM.

Question: What about the GI50 [8] of the same compound?
Answer: Its GI50 is less than 10 nM.

Question: What about the TGI [8] of the same compound?
Answer: Its TGI is less than 10 nM.

Question: And the GI50 [9]?
Answer: The GI50 was less than 10 nM.

Question: And the TGI [9]?
Answer: The TGI was 1100 nM.

Question: What about the GI50 [10] of the same compound?
Answer: The GI50 was less than 10 nM.

Question: And the TGI [10]?
Answer: Its TGI is 1920 nM.

Question: What about the GI50 [11] of the same compound?
Answer: The GI50 was less than 10 nM.

Question: And the TGI [11]?
Answer: The TGI was 542 nM.

Question: What about the GI50 [12] of the same compound?
Answer: The GI50 was less than 10 nM.

Question: And the TGI [12]?
Answer: The TGI was 1210 nM.

Question: And the GI50 [13]?
Answer: Its GI50 is less than 10 nM.

Question: What about the TGI [13] of the same compound?
Answer: Its TGI is 1230 nM.

Question: What about the GI50 [14] of the same compound?
Answer: The GI50 was less than 10 nM.

Question: What about the TGI [14] of the same compound?
Answer: Its TGI is less than 10 nM.

Question: And the GI50 [15]?
Answer: Its GI50 is less than 10 nM.

Question: And the TGI [15]?
Answer: The TGI was 1760 nM.

Question: What about the GI50 [16] of the same compound?
Answer: The GI50 was less than 10 nM.

Question: What about the TGI [16] of the same compound?
Answer: Its TGI is less than 10 nM.

Question: And the GI50 [17]?
Answer: Its GI50 is less than 10 nM.

Question: And the TGI [17]?
Answer: The TGI was less than 10 nM.

Question: And the GI50 [18]?
Answer: The GI50 was 511 nM.

Question: And the TGI [18]?
Answer: The TGI was 2140 nM.

Question: What about the GI50 [19] of the same compound?
Answer: Its GI50 is less than 10 nM.

Question: What about the TGI [19] of the same compound?
Answer: Its TGI is less than 10 nM.

Question: What about the GI50 [20] of the same compound?
Answer: Its GI50 is less than 10 nM.

Question: And the TGI [20]?
Answer: Its TGI is 1180 nM.

Question: What about the GI50 [21] of the same compound?
Answer: The GI50 was less than 10 nM.

Question: What about the TGI [21] of the same compound?
Answer: Its TGI is 1810 nM.

Question: And the GI50 [22]?
Answer: Its GI50 is less than 10 nM.

Question: What about the TGI [22] of the same compound?
Answer: Its TGI is less than 10 nM.

Question: And the GI50 [23]?
Answer: The GI50 was less than 10 nM.

Question: And the TGI [23]?
Answer: Its TGI is 1740 nM.

Question: What about the GI50 [24] of the same compound?
Answer: Its GI50 is less than 10 nM.

Question: What about the TGI [24] of the same compound?
Answer: Its TGI is 1370 nM.

Question: What about the GI50 [25] of the same compound?
Answer: Its GI50 is less than 10 nM.

Question: And the TGI [25]?
Answer: The TGI was 1840 nM.

Question: And the GI50 [26]?
Answer: The GI50 was less than 10 nM.

Question: What about the TGI [26] of the same compound?
Answer: The TGI was less than 10 nM.

Question: What about the GI50 [27] of the same compound?
Answer: The GI50 was less than 10 nM.

Question: What about the TGI [27] of the same compound?
Answer: Its TGI is less than 10 nM.

Question: What about the GI50 [28] of the same compound?
Answer: The GI50 was less than 10 nM.

Question: And the TGI [28]?
Answer: Its TGI is less than 10 nM.

Question: And the GI50 [29]?
Answer: The GI50 was 1500 nM.

Question: What about the TGI [29] of the same compound?
Answer: The TGI was 2840 nM.

Question: And the GI50 [30]?
Answer: Its GI50 is less than 10 nM.

Question: What about the TGI [30] of the same compound?
Answer: Its TGI is less than 10 nM.

Question: And the GI50 [31]?
Answer: Its GI50 is less than 10 nM.

Question: And the TGI [31]?
Answer: The TGI was 2030 nM.

Question: What about the GI50 [32] of the same compound?
Answer: Its GI50 is less than 10 nM.

Question: And the TGI [32]?
Answer: Its TGI is less than 10 nM.

Question: And the GI50 [33]?
Answer: Its GI50 is less than 10 nM.

Question: What about the TGI [33] of the same compound?
Answer: The TGI was less than 10 nM.

Question: And the GI50 [34]?
Answer: Its GI50 is 129 nM.

Question: And the TGI [34]?
Answer: The TGI was 286 nM.

Question: What about the GI50 [35] of the same compound?
Answer: Its GI50 is less than 10 nM.

Question: And the TGI [35]?
Answer: The TGI was less than 10 nM.

Question: What about the GI50 [36] of the same compound?
Answer: Its GI50 is 1270 nM.

Question: And the TGI [36]?
Answer: Its TGI is 2560 nM.

Question: And the GI50 [37]?
Answer: Its GI50 is less than 10 nM.

Question: And the TGI [37]?
Answer: Its TGI is 1570 nM.

Question: What about the GI50 [38] of the same compound?
Answer: The GI50 was less than 10 nM.

Question: And the TGI [38]?
Answer: The TGI was 1550 nM.

Question: What about the GI50 [39] of the same compound?
Answer: The GI50 was less than 10 nM.

Question: What about the TGI [39] of the same compound?
Answer: The TGI was less than 10 nM.

Question: What about the GI50 [40] of the same compound?
Answer: Its GI50 is less than 10 nM.

Question: And the TGI [40]?
Answer: The TGI was less than 10 nM.

Question: What about the GI50 [41] of the same compound?
Answer: Its GI50 is less than 10 nM.

Question: And the TGI [41]?
Answer: The TGI was 1510 nM.

Question: What about the GI50 [42] of the same compound?
Answer: Its GI50 is less than 10 nM.

Question: What about the TGI [42] of the same compound?
Answer: Its TGI is 1260 nM.

Question: And the GI50 [43]?
Answer: Its GI50 is 1310 nM.

Question: What about the TGI [43] of the same compound?
Answer: Its TGI is 2600 nM.

Question: And the GI50 [44]?
Answer: Its GI50 is less than 10 nM.

Question: What about the TGI [44] of the same compound?
Answer: Its TGI is less than 10 nM.

Question: What about the GI50 [45] of the same compound?
Answer: Its GI50 is less than 10 nM.

Question: What about the TGI [45] of the same compound?
Answer: Its TGI is 1780 nM.

Question: What about the GI50 [46] of the same compound?
Answer: Its GI50 is less than 10 nM.

Question: What about the TGI [46] of the same compound?
Answer: The TGI was 1880 nM.

Question: And the GI50 [47]?
Answer: Its GI50 is less than 10 nM.

Question: And the TGI [47]?
Answer: Its TGI is 1460 nM.

Question: What about the GI50 [48] of the same compound?
Answer: The GI50 was less than 10 nM.

Question: What about the TGI [48] of the same compound?
Answer: The TGI was 1810 nM.

Question: And the GI50 [49]?
Answer: Its GI50 is less than 10 nM.

Question: What about the TGI [49] of the same compound?
Answer: Its TGI is 275 nM.

Question: What about the GI50 [50] of the same compound?
Answer: Its GI50 is less than 10 nM.

Question: What about the TGI [50] of the same compound?
Answer: Its TGI is less than 10 nM.

Question: What about the GI50 [51] of the same compound?
Answer: The GI50 was 1540 nM.

Question: What about the TGI [51] of the same compound?
Answer: The TGI was 2900 nM.

Question: What about the GI50 [52] of the same compound?
Answer: The GI50 was less than 10 nM.

Question: And the TGI [52]?
Answer: The TGI was 1460 nM.

Question: What about the GI50 [53] of the same compound?
Answer: Its GI50 is less than 10 nM.

Question: What about the TGI [53] of the same compound?
Answer: Its TGI is 1290 nM.

Question: And the GI50 [54]?
Answer: The GI50 was 1110 nM.

Question: And the TGI [54]?
Answer: The TGI was 2340 nM.
